# Data published in US20130122541A1, “MICROORGANISM PRODUCTION OF HIGH-VALUE CHEMICAL PRODUCTS, AND RELATED COMPOSITIONS, METHODS AND SYSTEMS” (The Regents of the University of Colorado, priority 2010, published 2013).
# Where two headings read alike, the source gives them in different places.
# Key:
# [1] = tested on: wild-type E. coli BW25113; assay: Growth response to 3-HP (toleragram, OD600, doublings over 24 h), E. coli aerobic; type: cell-based; settings: aerobic condition, FIG. 15B
# Protocol: Overnight cultures of wild-type E. coli BW25113 were grown in triplicate in 5 mL standard LB medium. 100 uL of overnight cultures were used to inoculate triplicate 5 mL samples of M9 minimal medium+3HP, containing 47.7 mM Na2HPO4, 22 mM KH2PO4, 8.6 mM NaCl, 18.7 mM NH4Cl, 2 mM MgSO4, 0.1 mM CaCl2, and 0.4% glucose, with 3HP concentrations ranging from 0-50 g/L. Starting OD600 ranged from 0.02-0.08. Cultures were incubated at 37 C for about 24 hours, and OD600 was recorded every 1-2 hours for the first 8 hours with a final OD600 recorded at about 24 hours. Maximum specific growth rates (μmax) were calculated by determining the optimal fit of exponential trend lines with OD data for the evaluation period. Specific changes in OD600 over approximately 24 hours (Δ24 hrOD600) were calculated as the difference in t=24 hr and t=0 optical density, Δ24hOD600=(ODt=24)−(ODt=0). Specific number of doublings (Nd) were calculated by solving for N in the equation 2^N=(ODt=24)/(ODt=0).
# [2] = tested on: Yeast strains (S288C background); assay: microbe, parasite or virus in culture; type: cell-based, Saccharomyces cerevisiae; settings: for MIC: Saccharomyces cerevisiae
# Protocol: The minimum inhibitory concentration (MIC) was determined aerobically in a 96 well-plate format. […] Media supplements were added according to levels reported in the Supplements Table, where specified. Overnight cultures of strains were grown in triplicate in 5 mL SD media with vitamins (Methods in Enzymology vol. 350, page 17 (2002)). A 1% (v/v) inoculum was introduced into a 5 ml culture of SD minimal media without vitamins. After the cells reached mid-exponential phase, the culture was diluted to an OD600 of 0.200. The cells were further diluted 1:5 and a 10 μL aliquot was used to inoculate each well of a 96 well plate (˜10^4 cells per well) to total volume of 100 uL. […] Plates were incubated for 72 hours at 30 C.
# B. subtilis = assay: MIC evaluation of 3-HP, B. subtilis aerobic, M9 media + glutamate, 96 well-plate, 24 h (Common Methods); type: cell-based
# Protocol: For MIC evaluations, the final results are expressed in chemical agent concentrations determined by analysis of the stock solution by HPLC (i.e., see Subsection IIIb).
# The minimum inhibitory concentration (MIC) was determined aerobically in a 96 well-plate format. […] Media supplements were added according to levels reported in the Supplements Table where specified. Overnight cultures of strains were grown in triplicate in 5 mL LB (with antibiotic where appropriate). A 1% (v/v) inoculum was introduced into a 5 ml culture of M9 minimal media+glutamate.
# [3] = strain BSX_0003.0 (pWH1520), M9 + glu + trp + 1 mM Xylose
compound,measurement,setting,value
"O=C(O)CCO [3-HP, 3-hydroxypropionic acid]",3-HP concentration at which a dramatic reduction in cell density (OD600) at 24 hours starts,[1],30 g/L
same,% Increase Over Control,"[2]; S288C, SC media vs SD control, aerobic",33%
same,MIC,"[2]; read-out: Average MIC Assay Result (g/L 3-HP), S288C, SC media, supplements none, aerobic",60 g/L
same,MIC,"[2]; read-out: Average MIC Assay Result (g/L 3-HP), S288C, SD media, supplements none (control), aerobic",45 g/L
same,MIC,"[2]; read-out: MIC Assay Result (g/L 3-HP), strain YX-022 (BY4722, pyes2.1-Aro3 pRS425-ILV6), SD, aerobic",60 g/L
same,MIC,"[2]; read-out: MIC Assay Result (g/L 3-HP), strain YX-CJR-001 (BY4709, pRS426 EV, control), SD, aerobic",40 g/L
same,MIC,"[2]; read-out: MIC Assay Result (g/L 3-HP), strain YX-CJR-002 (BY4709, pYes2.1-spe3), SD, aerobic",50 g/L
same,MIC,"[2]; read-out: MIC Assay Result (g/L 3-HP), strain YX-CJR-003 (BY4709, pYes2.1-hom2), SD, aerobic",47 g/L
same,MIC,"[2]; read-out: MIC Assay Result (g/L 3-HP), strain YX-CJR-005 (BY4709, pYes2.1-Met6), SD, aerobic",50 g/L
same,MIC,"[2]; read-out: MIC Assay Result (g/L 3-HP), strain YX-CJR-006 (BY4709, pYes2.1-Ilv2), SD, aerobic",57 g/L
same,MIC,"[2]; read-out: MIC Assay Result (g/L 3-HP), strain YX-CJR-010 (BY4709, pyes2.1-Thr1), SD, aerobic",60 g/L
same,MIC,"[2]; read-out: MIC Assay Result (g/L 3-HP), strain YX-CJR-014 (BY4709, pyes2.1-arg2), SD, aerobic",60 g/L
same,MIC,"[2]; read-out: MIC Assay Result (g/L 3-HP), strain YX-CJR-017 (BY4709, pyes2.1-Aro7), SD, aerobic",70 g/L
same,% Increase Over Control,"[2]; strain YX-022 (pyes2.1-Aro3 pRS425-ILV6) vs control, aerobic",50%
same,% Increase Over Control,"[2]; strain YX-CJR-002 (pYes2.1-spe3) vs YX-CJR-001, aerobic",25%
same,% Increase Over Control,"[2]; strain YX-CJR-003 (pYes2.1-hom2) vs YX-CJR-001, aerobic",17%
same,% Increase Over Control,"[2]; strain YX-CJR-005 (pYes2.1-Met6) vs YX-CJR-001, aerobic",25%
same,% Increase Over Control,"[2]; strain YX-CJR-006 (pYes2.1-Ilv2) vs YX-CJR-001, aerobic",42%
same,% Increase Over Control,"[2]; strain YX-CJR-010 (pyes2.1-Thr1) vs YX-CJR-001, aerobic",50%
same,% Increase Over Control,"[2]; strain YX-CJR-014 (pyes2.1-arg2) vs YX-CJR-001, aerobic",50%
same,% Increase Over Control,"[2]; strain YX-CJR-017 (pyes2.1-Aro7) vs YX-CJR-001, aerobic",75%
same,% Increase Over Control,"B. subtilis; B. subtilis 168, M9 + glu + trp, supplements none (control)",0%
same,% Increase Over Control,B. subtilis; [3],0%
same,Avg 24 hr ΔOD600,B. subtilis; [3],0.00
same,Avg 24 hr ΔOD600,"B. subtilis; strain BSX_0011.0 (pWH1520-Pxyl:speB region), M9 + glu + trp + 1 mM Xylose",0.07
same,Avg 24 hr ΔOD600,"B. subtilis; strain BSX_0015.0 (pWH1520-Pxyl:metE region), M9 + glu + trp + 1 mM Xylose",0.06
